# According to patent US12187672B2, “1,2-diacylglycerol compound, preparation method therefor, and immunomodulator containing same as active ingredient” (ENZYCHEM LIFESCIENCES CORPORATION, priority 2018, dated 2025):
# Tests used:
# [1] = test system: IL-6; test: LPS-induced IL-6 secretion reduction in RAW264.7 cells (ELISA); type: cell-based, mouse; details: for IL-6 concentration (average ± deviation): sample 100 μg/ml 1 h, then LPS 1 μg/ml 24 h
# How it was run: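 Mouse RAW264.7 macrophages in DMEM/10% FBS were plated at 5×10^4 cells/ml, rested for 15 h, treated with compound for 1 h, then stimulated with 1 μg/ml LPS for 24 h at 37 °C. IL-6 in the supernatant was measured by sandwich ELISA (HRP, OD 450 nm) and expressed as reduction rate or concentration.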
# [2] = test system: STAT3; test: STAT3 activity, pGL4.47 SIE luciferase reporter in LPS-treated RAW264.7 cells; type: cell-based, mouse; details: sample 100 μg/ml 1 h, then LPS 1 μg/ml 18 h
# Experimental: pGL4.47 [luc2P/SIE/Hygro] vector containing the sis-Inducible Element that binds to STAT3 was injected into RAW264.7 cells to confirm the degree of STAT3 activity. In DMEM (Hyclone, Thermo Scientific) medium to which 10% Fetal Bovine Serum was added, RAW264.7 cells were cultured at a concentration of 1×10^5 cells/ml, and maintained in a 5% CO2 humidified incubator at 37° C. The cultured RAW264.7 cells were inoculated into a 48 well plate by 1×10^5 cells/ml and stabilized for 18 hours. Thereafter, the pGL4.47 [luc2P/SIE/Hygro] vector containing sis-Inducible Element was mixed with Attractene to induce complex formation at room temperature for 15 minutes. This complex was treated with the cells and then further incubated for 18 hours. Thereafter, the culture solution was treated with a glycerol derivative compounds of the type shown in Table 5 below for 1 hour and then LPS (1 μg/ml) was treated and further incubated for 18 hours for STAT3 activity. Thereafter, the culture supernatant was removed for each well, and the remaining cells were lysed with a cell lysis buffer, and then cell lysate was recovered. 90 μl of luciferase reagent was mixed with 10 μl of the recovered cell lysate, and the degree of fluorescence was confirmed using a luminometer.
# [3] = test system: CXCL8 (IL-8); test: CXCL8 (IL-8) expression reduction in Gemcitabine-treated THP-1 cells (ELISA); type: cell-based, human; details: THP-1 cells; for CXCL8 [IL-8] concentration (average ± deviation): sample 100 μg/ml 1 h, then Gemcitabine 2 μg/ml 24 h; for reduction of CXCL8 (IL-8) expression/secretion: Gemcitabine-treated, 100 μg/ml
# How it was run: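 Human THP-1 macrophage-like cells in RPMI/10% FBS, plated at 1×10^6 cells/ml, pretreated 1 h with compound, then stimulated with Gemcitabine (2 μg/ml) for 24 h at 37° C, 5% CO2. Secreted IL-8 in the supernatant was measured by sandwich ELISA, read at 450 nm.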
# [4] = test system: IL-4; test: PKC activator-induced IL-4 secretion reduction in EL-4 cells (ELISA); type: cell-based, mouse; details: for decrease of IL-4 secretion/expression: PKC activator-treated, 100 μg/ml; for IL-4 concentration (average ± deviation): sample 100 μg/ml 2 h, then PKC activator 18 h
# How it was run: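 Mouse EL-4 lymphoma cells in DMEM/10% FBS pretreated 2 h with compound, then stimulated with 0.5 μg/ml PKC activator (PMA type) for 18 h at 37 °C. Secreted IL-4 in supernatant quantified by sandwich ELISA (OD 450 nm) and expressed as reduction rate.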
SMILES,IL-6 concentration (average ± deviation) ([1]; Table 3) [pg/µL],STAT3 activity_Luciferase activity (average ± deviation) [2],CXCL8 [IL-8] concentration (average ± deviation) [3] [pg/µL],decrease of IL-4 secretion/expression [4],IL-4 concentration (average ± deviation) ([4]; Table 12) [pg/µL],decrease of IL-6 secretion/expression compared to the LPS-treated group ([1]; 100 μg/ml),IL-6 concentration (average ± deviation) ([1]; Table 2) [pg/µL],reduction of CXCL8 (IL-8) expression/secretion [3],IL-4 concentration (average ± deviation) ([4]; Table 11) [pg/µL]
CCCCC/C=C\C/C=C\CCCCCCCC(=O)OC(COC(=O)CC)COC(=O)CCCCCCC (centres unmarked) [EC_A87],0.705 ± 0.158,1312 ± 34.6,134.4 ± 10.7,about 20%,511.0 ± 0.6,–,–,–,–
CCCCC/C=C\C/C=C\CCCCCCCC(=O)OC(COC(=O)CCCCCC)COC(=O)CCCCCCCCCCCCCCC (centres unmarked) [EC_A83],0.658 ± 0.070,510.2 ± 27.2,107.7 ± 3.9,–,637.9 ± 14.1,–,–,–,–
CCCCC/C=C\C/C=C\CCCCCCCC(=O)OC(COC(=O)CCCC)COC(=O)CCCCCCCCCCC (centres unmarked) [EC_A93],0.765 ± 0.055,536.2 ± 222.3,110.9 ± 0.0,about 20%,507.9 ± 3.85,–,–,–,–
CCCCC/C=C\C/C=C\CCCCCCCC(=O)OC(COC(=O)CCCC)COC(=O)CCCCCCCCC (centres unmarked) [EC_A99],0.666 ± 0.075,353.2 ± 83.0,102.0 ± 19.3,–,553.3 ± 39.8,–,–,–,–
CCCCCC=CCC=CCCCCCCCC(=O)OC(COC(=O)CCCCCCC)COC(=O)C(C)(C)C (centres unmarked) [EC_A89],0.736 ± 0.097,1087.7 ± 257.7,123.1 ± 0.0,–,620.1 ± 22.4,–,–,–,–
CCCCC/C=C\C/C=C\CCCCCCCC(=O)OC(COC(=O)CCCCCCCCC)COC(=O)C(C)CC (centres unmarked) [EC_A102],0.738 ± 0.070,602 ± 11.3,102.5 ± 4.4,–,775.1 ± 11.5,–,–,–,–
"CCCCC/C=C\C/C=C\CCCCCCCC(=O)OC(COC(C)=O)COC(=O)CCCCCCCCCCCCCCC (centres unmarked) [EC-18, 1-palmitoyl-2-linoleoyl-3-acetylglycerol, reference compound]",0.491 ± 0.063,491.5 ± 41.7,79.6 ± 6.0,–,429.2 ± 7.0,about 30%,194 ± 11,about 20%,662.4 ± 42.4
CCCCC/C=C\C/C=C\CCCCCCCC(=O)OC(COC(=O)CCC)COC(=O)CCCCCCCCC (centres unmarked) [EC_A98],0.619 ± 0.036,370.7 ± 35.0,105 ± 2.0,–,584.2 ± 50.1,–,–,–,–
CCCCC/C=C\C/C=C\CCCCCCCC(=O)OC(COC(=O)CCCCCCCCCCC)COC(=O)C(C)CC (centres unmarked) [EC_A96],0.788 ± 0.006,1136.7 ± 63.9,103.7 ± 5.4,–,582.9 ± 17.3,–,–,–,–
CCCCC/C=C\C/C=C\CCCCCCCC(=O)OC(COC(=O)CCCC)COC(=O)CCCCCCC (centres unmarked) [EC_A86],0.796 ± 0.045,866.2 ± 15.2,99.2 ± 4.9,about 20%,476.0 ± 2.5,–,–,–,–
CCCCC/C=C\C/C=C\CCCCCCCC(=O)OC(COC(=O)CCCCCCCCC)COC(=O)C(C)(C)C (centres unmarked) [EC_A101],0.645 ± 0.057,581.7 ± 8.1,118.1 ± 2.8,–,634.7 ± 3.21,–,–,–,–
CCCCC/C=C\C/C=C\CCCCCCCC(=O)OC(COC(=O)CCCCCCCCC)COC(=O)C(C)C (centres unmarked) [EC_A100],0.749 ± 0.054,572.2 ± 60.4,115.1 ± 3.9,–,539.7 ± 6.4,–,–,–,–
CCCCC/C=C\C/C=C\CCCCCCCC(=O)OC(COC(=O)CCCCCCC)COC(=O)C(C)C (centres unmarked) [EC_A88],0.792 ± 0.086,1171.5 ± 146.3,91.4 ± 3.4,–,654.7 ± 0.6,–,–,–,–
CCCCC/C=C\C/C=C\CCCCCCCC(=O)OC(COC(=O)CCC)COC(=O)CCCCCCC (centres unmarked) [EC_A85],0.741 ± 0.071,1126.7 ± 32.1,94.4 ± 3.4,about 20%,485.1 ± 19.2,–,–,–,–
CCCCC/C=C\C/C=C\CCCCCCCC(=O)OC(COC(=O)CCCCCCCCCCCCCCC)COC(=O)C1CC1 (centres unmarked) [EC_A79],0.652 ± 0.145,1183.5 ± 51.6,108.7 ± 8.3,–,527 ± 17.9,–,–,–,–
CCCCC/C=C\C/C=C\CCCCCCCC(=O)OC(COC(=O)CCCCCCCCCCCCCCC)COC(C)C (centres unmarked) [EC_A21],–,–,86.2 ± 0.7,–,–,–,176 ± 2,about 20%,488.8 ± 46.2
CCCCC/C=C\C/C=C\CCCCCCCC(=O)OC(COC(=O)CC)COC(=O)CCCCCCCCCCC (centres unmarked) [EC_A91],0.752 ± 0.068,746.5 ± 26.1,96.1 ± 3.6,about 20%,446.0 ± 16.7,–,–,–,–
CCCCC/C=C\C/C=C\CCCCCCCC(=O)OC(COC(=O)CCC)COC(=O)CCCCCCCCCCC (centres unmarked) [EC_A92],0.800 ± 0.038,820 ± 448.3,105.1 ± 0.2,about 20%,498.3 ± 45.6,–,–,–,–
CCCCC/C=C\C/C=C\CCCCCCCC(=O)OC(COC(=O)CC)COC(=O)CCCCCCCCCCCCCCC (centres unmarked) [EC_A78],0.708 ± 0.086,912.5 ± 214.2,108.5 ± 4.9,–,557 ± 11.5,–,–,–,–
